# Measurements: US9751861B2, “N1-(3,3,3-trifluoro-2-hydroxo-2-methylpropionyl)-piperidine derivatives as inhibitors of pyruvate dehydrogenase kinase” (MERCK PATENT GMBH, priority 2013, dated 2017)
# Tests used:
# human PDHK2 (12-407) = target: T1, human PDHK2 (12-407) (Homo sapiens, UniProt Q15119); assay: Isothermal titration calorimetry (ITC) binding; conditions: 30° C., pH 7.5
# T1 construct: The human PDHK2 (12-407) was produced in E. coli; His-tag (cleaved yes); made in house; host or cells: E. coli
# How it was run: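 Untagged PDHK2 (12-407) from E. coli at 50 μM titrated into 5 μM compound at 30° C in pH 7.5 HEPES/KCl/MgCl2/phosphate buffer, ≤1% DMSO. One-site fit gave KA, ΔH^obs and N after heat-of-dilution correction; protein concentration referenced to a standard inhibitor and compound concentration adjusted to 1:1 stoichiometry.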
# PDHK2 = target: T2, PDHK2 (Homo sapiens, UniProt Q15119); assay: Biochemical activity testing of PDHK2: PDC inactivation assay; conditions: human rec PDHK2, PDC from porcine heart, ATP 5 μM; read-out: IC50 PDHK2 (enzyme assay)
# T2 construct: purchased Carna Bioscience
# How it was run: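 Human recombinant PDHK2 (137 nM final) preincubated 30 min at RT with porcine heart PDC (20 mU/ml) and compound in pH 7.0 phosphate buffer, then phosphorylated with 5 μM ATP for 30 min at 37 °C. Residual PDC activity read as NADH fluorescence increase (Ex 340/Em 450) over 45 min; inhibitor-free reaction as full value, 3 mM DCA as zero, IC50 derived.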
# PDH-Elalpha (pSer300) = assay: Cellular immunofluorescence assay in HEK293T cells; type: cell-based; conditions: Homo sapiens, HEK-293T, 5 hours incubation, anti-PDH-E1alpha pSer300 immunofluorescence, read-out: IC50 (cell data)
# How it was run: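 HEK293T cells were exposed to compound for 5 hours, then fixed, permeabilised and immunostained for PDH-Elalpha pSer300 with Hoechst counterstain, read by laser scanning cytometry. Percent effect was normalized to a pharmacological inhibitor control and fitted to dose-response curves.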
Kd (human PDHK2 (12-407)) [nM],IC50 (PDHK2) [nM],IC50 (PDH-Elalpha (pSer300)) [nM],SMILES
< 300,< 300,3000 to 50000,"C[C@@](O)(C(=O)N1CCC(n2ccnc2-c2ccccc2)CC1)C(F)(F)F [Compound A61, (R)-3,3,3-Trifluoro-2-hydroxy-2-methyl-1-[4-(2-phenyl-imidazol-1-yl)-piperidin-1-yl]-propan-1-one]"
< 300,300 to 3000,3000 to 50000,"C[C@@](O)(C(=O)N1CCC(c2ccnn2-c2nc3ccccc3s2)CC1)C(F)(F)F [Compound A117, (R)-1-[4-(2-Benzothiazol-2-yl-2H-pyrazol-3-yl)-piperidin-1-yl]-3,3,3-trifluoro-2-hydroxy-2-methyl-propan-1-one]"
< 300,300 to 3000,300 to 3000,"CC(C)(C)n1nccc1C1CCN(C(=O)[C@@](C)(O)C(F)(F)F)CC1 [Compound A17, (R)-1-[4-(2-tert-Butyl-2H-pyrazol-3-yl)-piperidin-1-yl]-3,3,3-trifluoro-2-hydroxy-2-methyl-propan-1-one]"
< 300,< 300,300 to 3000,"C[C@@](O)(C(=O)N1CCC(c2ccnn2-c2ccccc2F)CC1)C(F)(F)F [Compound A4, (R)-3,3,3-Trifluoro-1-{4-[2-(2-fluoro-phenyl)-2H-pyrazol-3-yl]-piperidin-1-yl}-2-hydroxy-2-methyl-propan-1-one]"
< 300,300 to 3000,300 to 3000,"C[C@@](O)(C(=O)N1CCC(c2cncn2-c2ccc(F)cc2)CC1)C(F)(F)F [Compound A124, (R)-3,3,3-Trifluoro-1-{4-[3-(4-fluoro-phenyl)-3H-imidazol-4-yl]-piperidin-1-yl}-2-hydroxy-2-methyl-propan-1-one]"
< 300,300 to 3000,300 to 3000,"Cc1ccc(-n2nccc2C2CCN(C(=O)[C@@](C)(O)C(F)(F)F)CC2)nc1 [Compound A83, (R)-3,3,3-Trifluoro-2-hydroxy-2-methyl-1-{4-[2-(5-methyl-pyridin-2-yl)-2H-pyrazol-3-yl]-piperidin-1-yl}-propan-1-one]"
300 to 3000,300 to 3000,3000 to 50000,"C[C@@](O)(C(=O)N1CCC(c2ccnn2C2CCOCC2)CC1)C(F)(F)F [Compound A116, (R)-3,3,3-Trifluoro-2-hydroxy-2-methyl-1-{4-[2-(tetrahydro-pyran-4-yl)-2H-pyrazol-3-yl]-piperidin-1-yl}-propan-1-one]"
< 300,300 to 3000,3000 to 50000,"C[C@@](O)(C(=O)N1CCC(c2ccnn2-c2cccc(Cl)c2)CC1)C(F)(F)F [Compound A12, (R)-1-{4-[2-(3-Chloro-phenyl)-2H-pyrazol-3-yl]-piperidin-1-yl}-3,3,3-trifluoro-2-hydroxy-2-methyl-propan-1-one]"
< 300,< 300,300 to 3000,"C[C@@](O)(C(=O)N1CCC(c2ccnn2-c2ncc(F)cc2F)CC1)C(F)(F)F [Compound A82, (R)-1-[4-[2-(3,5-Difluoro-2-pyridyl)-2H-pyrazol-3-yl]-1-piperidyl]-3,3,3-trifluoro-2-hydroxy-2-methyl-propan-1-one]"
< 300,< 300,300 to 3000,"COc1ccc(-n2nccc2C2CCN(C(=O)C(C)(O)C(F)(F)F)CC2)c(F)c1 (racemic) [Compound A30, rac-3,3,3-Trifluoro-1-{4-[2-(2-fluoro-4-methoxy-phenyl)-2H-pyrazol-3-yl]-piperidin-1-yl}-2-hydroxy-2-methyl-propan-1-one]"
< 300,300 to 3000,300 to 3000,"C[C@@](O)(C(=O)N1CCC(c2cncn2-c2ccccc2)CC1)C(F)(F)F [Compound A65, (R)-3,3,3-Trifluoro-2-hydroxy-2-methyl-1-[4-(3-phenyl-3H-imidazol-4-yl)piperidin-1-yl]-propan-1-one]"

# More lines, now with the values behind:
SMILES,Kd (human PDHK2 (12-407)) [nM],IC50 (PDHK2) [nM],IC50 (PDH-Elalpha (pSer300)) [nM]
"C[C@@H]1CN(C(=O)[C@@](C)(O)C(F)(F)F)CC[C@@H]1c1ccnn1-c1ccc(F)cc1 [Compound A107, (R)-3,3,3-Trifluoro-1-{(3S,4S)-4-[2-(4-fluoro-phenyl)-2H-pyrazol-3-yl]-3-methyl-piperidin-1-yl}-2-hydroxy-2-methyl-propan-1-one]",< 300,< 300,< 300
"C[C@@H]1CN(C(=O)[C@@](C)(O)C(F)(F)F)CC[C@@H]1c1ccnn1[C@H]1CC[C@H](O)CC1 [Compound A121, (R)-3,3,3-Trifluoro-2-hydroxy-1-{(3S,4S)-4-[2-(4-hydroxy-cyclohexyl)-2H-pyrazol-3-yl]-3-methyl-piperidin-1-yl}-2-methyl-propan-1-one]",< 300,< 300,300 to 3000
"CC(C)(O)c1ccc(-n2nccc2C2CCN(C(=O)[C@@](C)(O)C(F)(F)F)CC2)cc1 [Compound A20, (R)-3,3,3-Trifluoro-2-hydroxy-1-(4-{2-[4-(1-hydroxy-1-methyl-ethyl)-phenyl]-2H-pyrazol-3-yl}-piperidin-1-yl)-2-methyl-propan-1-one]",< 300,< 300,300 to 3000
"Cc1ccc(-n2nccc2C2CCN(C(=O)[C@@](C)(O)C(F)(F)F)CC2)c(F)c1 [Compound A16, (R)-3,3,3-Trifluoro-1-{4-[2-(2-fluoro-4-methyl-phenyl)-2H-pyrazol-3-yl]-piperidin-1-yl}-2-hydroxy-2-methyl-propan-1-one]",< 300,< 300,300 to 3000
"C[C@@](O)(C(=O)N1CCC(c2ccnn2-c2ccc(Cl)cc2)CC1)C(F)(F)F [Compound A13, (R)-1-{4-[2-(4-Chloro-phenyl)-2H-pyrazol-3-yl]-piperidin-1-yl}-3,3,3-trifluoro-2-hydroxy-2-methyl-propan-1-one]",< 300,< 300,300 to 3000
"C[C@@](O)(C(=O)N1CCC(c2cncn2-c2ccc(Cl)cc2)CC1)C(F)(F)F [Compound A125, (R)-1-{4-[3-(4-Chloro-phenyl)-3H-imidazol-4-yl]-piperidin-1-yl}-3,3,3-trifluoro-2-hydroxy-2-methyl-propan-1-one]",< 300,300 to 3000,300 to 3000
"C[C@@](O)(C(=O)N1CCC(c2ccnn2-c2ccc(C(F)(F)F)cc2)CC1)C(F)(F)F [Compound A27, (R)-3,3,3-Trifluoro-2-hydroxy-2-methyl-1-{4-[2-(4-trifluoromethyl-phenyl)-2H-pyrazol-3-yl]-piperidin-1-yl}-propan-1-one]",< 300,< 300,300 to 3000
"C[C@@](O)(C(=O)N1CCC(c2cncn2-c2ccc(Cl)cc2F)CC1)C(F)(F)F [Compound A126, (R)-1-{4-[3-(4-Chloro-2-fluoro-phenyl)-3H-imidazol-4-yl]-piperidin-1-yl}-3,3,3-trifluoro-2-hydroxy-2-methyl-propan-1-one]",< 300,< 300,300 to 3000
"C[C@@](O)(C(=O)N1CCC(c2ccnn2C2CCCCC2)CC1)C(F)(F)F [Compound A37, (R)-1-[4-(2-Cyclohexyl-2H-pyrazol-3-yl)-piperidin-1-yl]-3,3,3-trifluoro-2-hydroxy-2-methyl-propan-1-one]",< 300,300 to 3000,3000 to 50000
"C[C@@H]1CN(C(=O)[C@@](C)(O)C(F)(F)F)CC[C@@H]1c1ccn(-c2ccc(F)cc2)n1 [Compound A46, (R)-3,3,3-Trifluoro-1-{(3S,4S)-4-[1-(4-fluoro-phenyl)-1H-pyrazol-3-yl]-3-methyl-piperidin-1-yl}-2-hydroxy-2-methyl-propan-1-one]",< 300,< 300,300 to 3000
"C[C@@](O)(C(=O)N1CCC(c2ccnn2-c2ncc(Br)cn2)CC1)C(F)(F)F [Compound A19, (R)-1-{4-[2-(5-Bromo-pyrimidin-2-yl)-2H-pyrazol-3-yl]-piperidin-1-yl}-3,3,3-trifluoro-2-hydroxy-2-methyl-propan-1-one]",< 300,300 to 3000,300 to 3000
"COc1ccc(-n2nccc2C2CCN(C(=O)[C@@](C)(O)C(F)(F)F)CC2)c(F)c1 [Compound A28, (R)-3,3,3-Trifluoro-1-{4-[2-(2-fluoro-4-methoxy-phenyl)-2H-pyrazol-3-yl]-piperidin-1-yl}-2-hydroxy-2-methyl-propan-1-one]",< 300,< 300,300 to 3000
"C[C@@](O)(C(=O)N1CCC(c2cc(C(F)(F)F)nn2-c2ccc(Cl)cc2)CC1)C(F)(F)F [Compound A35, (R)-1-{4-[2-(4-Chloro-phenyl)-5-trifluoromethyl-2H-pyrazol-3-yl]-piperidin-1-yl}-3,3,3-trifluoro-2-hydroxy-2-methyl-propan-1-one]",< 300,< 300,300 to 3000
"C[C@@](O)(C(=O)N1CCC(c2ccnn2-c2ccc(OCC(F)(F)F)cc2)CC1)C(F)(F)F [Compound A49, (R)-3,3,3-Trifluoro-2-hydroxy-2-methyl-1-(4-{2-[4-(2,2,2-trifluoro-ethoxy)phenyl]-2H-pyrazol-3-yl}-piperidin-1-yl)-propan-1-one]",< 300,< 300,300 to 3000
